The values below come from ChEMBL document CHEMBL1201862, “PubChem BioAssay data set” (2004).

Calls of active or inactive are those of the source.

The target of assay [1] is Peroxisome proliferator-activated receptor gamma/Nuclear receptor coactivator 1 (Homo sapiens, UniProt P37231). The experiment in a line: TR-FRET dose response biochemical High Throughput Screening assay for agonists of the steroid receptor coactivator 1 (SRC-1) recruitment by the peroxisome proliferator-activated receptor gamma (PPAR gamma): non-selective agonists. [Related pubchem assays (depositor defined):AID1300, AID1808, AID504735, AID631]. It counts as protein assay. In general terms: TR-FRET usually uses a lanthanide donor and a delayed reading to cut background.

Assay [2] addresses Peroxisome proliferator-activated receptor gamma/Nuclear receptor coactivator 2 (Homo sapiens, UniProt P37231). The experiment in a line: TR-FRET dose response biochemical High Throughput Screening assay for agonists of the steroid receptor coactivator 2 (SRC-2) recruitment by the peroxisome proliferator-activated receptor gamma (PPAR gamma): non-selective agonists. [Related pubchem assays: 1297, 1032 ]. The class given is functional.

The target in assay [3] is Peroxisome proliferator-activated receptor gamma/Nuclear receptor coactivator 3 (Homo sapiens, UniProt P37231). Briefly: TR-FRET dose response biochemical High Throughput Screening assay for agonists of the steroid receptor coactivator 3 (SRC-3) recruitment by the peroxisome proliferator-activated receptor gamma (PPAR gamma): non-selective agonists. [Related pubchem assays: 1301 (Confirmation screen.), 1048 (Primary screen.)]. It counts as functional.

Assay [4] in a line: HIV-1 AD8 envelope cell-cell fusion blockers – cherry-pick, dose response (AID 652062).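 Also: luciferase signal from cell-cell fusion driven by HIV-1 clade B AD8 Env; potency is for inhibitors of fusion seen as a drop in luminescence.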 It counts as functional, cell-based.
The nature of assay [5]: blockers of HIV-1 envelope-mediated cell-cell fusion – cherry-pick, dose response (AID 652057). It counts as functional, cell-based.
The nature of assay [6]: blockers of HIV-1 ZM109 envelope-driven cell-cell fusion – HeLa effector, CEM target cells, luciferase, cherry-pick, dose response (AID 652058).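 Also: luciferase signal from HIV-1 Env mediated cell-cell fusion of effector and target cells.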 It counts as functional, cell-based.
A short description of assay [7]: off-target signal loss in HeLa-CEM21 co-culture – HeLa F-luc CTL cells, cherry-picked, counter-screen for HIV-1 Env fusion inhibitor project, dose response (AID 652040).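 Also: potency for signal decrease marking cytotoxic or nonspecific inhibition.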 The class given is functional, cell-based.
Assay [8] addresses T1, Tyrosyl-DNA phosphodiesterase 2 (Homo sapiens, UniProt O95551).
T1 sequence (O95551 whole entry): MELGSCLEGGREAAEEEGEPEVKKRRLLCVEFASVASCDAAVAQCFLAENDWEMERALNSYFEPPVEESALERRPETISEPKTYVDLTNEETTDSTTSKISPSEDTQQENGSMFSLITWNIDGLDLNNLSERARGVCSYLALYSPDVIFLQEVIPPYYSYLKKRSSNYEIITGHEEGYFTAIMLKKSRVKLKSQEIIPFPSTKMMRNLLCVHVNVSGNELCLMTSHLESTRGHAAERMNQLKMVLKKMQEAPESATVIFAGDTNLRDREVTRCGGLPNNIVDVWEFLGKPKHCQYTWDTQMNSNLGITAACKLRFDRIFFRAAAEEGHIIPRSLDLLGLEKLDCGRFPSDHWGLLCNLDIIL
Briefly: potency against TDP2 phosphodiesterase activity – biochemical, epi absorbance, IC50, dose response (AID 743297).

The target of assay [9] is T2, Corticotropin-releasing factor receptor 2/Corticotropin-releasing factor-binding protein (Homo sapiens, UniProt P24387+Q13324).
T2 sequence (Q13324 whole entry): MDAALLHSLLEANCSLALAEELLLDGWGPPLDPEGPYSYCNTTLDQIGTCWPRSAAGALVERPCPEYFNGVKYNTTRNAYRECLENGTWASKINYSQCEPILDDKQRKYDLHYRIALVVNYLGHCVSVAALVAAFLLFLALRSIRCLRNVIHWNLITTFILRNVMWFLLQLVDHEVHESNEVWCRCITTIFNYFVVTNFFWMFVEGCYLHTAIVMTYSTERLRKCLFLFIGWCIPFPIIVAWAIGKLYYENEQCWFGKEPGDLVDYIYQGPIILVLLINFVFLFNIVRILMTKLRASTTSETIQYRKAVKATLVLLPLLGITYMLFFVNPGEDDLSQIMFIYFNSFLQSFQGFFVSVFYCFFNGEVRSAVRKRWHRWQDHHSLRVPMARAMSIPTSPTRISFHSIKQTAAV
T2 sequence (P24387 whole entry): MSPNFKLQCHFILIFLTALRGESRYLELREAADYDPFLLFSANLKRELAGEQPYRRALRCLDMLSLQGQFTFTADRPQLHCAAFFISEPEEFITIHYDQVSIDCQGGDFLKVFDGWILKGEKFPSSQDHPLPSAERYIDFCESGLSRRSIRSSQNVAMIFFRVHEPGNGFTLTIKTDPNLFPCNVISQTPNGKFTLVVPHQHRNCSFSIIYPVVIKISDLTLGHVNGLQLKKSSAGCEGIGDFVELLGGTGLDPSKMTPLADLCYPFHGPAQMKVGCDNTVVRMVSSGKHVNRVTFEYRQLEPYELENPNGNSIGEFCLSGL
The experiment in a line: activators of CRF receptor 2 with binding protein – uHTS hits, confirmation (AID 602473). Conditions: read-out: EC50_Mean. The class given is functional.

Assay [10] has as its target T2, Corticotropin-releasing factor receptor 2/Corticotropin-releasing factor-binding protein. The experiment in a line: Dose Response confirmation of uHTS hits for small molecule antagonists of the CRF-binding protein and CRF-R2 receptor complex. The class given is functional. The note with it: read-out: IC50_Mean.
Assay [11] is described as follows: blockers of CRF-binding protein–CRF-R2 complex – cell-based, uHTS hits, 384-well, dose response (AID 651639). The class given is functional, Homo sapiens. Conditions: read-out: IC50_Mean.
For assay [12], the target named is Heat shock protein HSP 90-alpha (Homo sapiens, UniProt P07900). The class given is functional, organism-based.
The target in a further assay is Paired box protein Pax-8 (Homo sapiens, UniProt Q06710). The experiment in a line: PAX8 transcriptional activity inhibition in RMG-I – RMG-I cells, luciferase, cherry-pick, dose response (AID 687027).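 Also: luciferase reporter driven by Pax8 target thyroperoxidase promoter measured by SteadyGlo luminescence.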 The class given is functional, cell-based.
Assay [13] is described as follows: general cell-killing toxicity readout – plate reader, dry powder samples, cytotoxicity control for PAX8 inhibitor project, dose response (AID 743021). It counts as functional, cell-based.
Assay [14] in a line: Luminescence Cell-Based Dose Confirmation HTS to Identify Inhibitors of Platelet Dense Granule Release. [Related pubchem assays: 1663 (Primary HTS), 1678 (Summary of Project)]. The class given is functional.
Assay [15] concerns the target Luciferin 4-monooxygenase (Photinus pyralis, UniProt P08659). The experiment in a line: inhibition of purified Photinus pyralis luciferase – biochemical, luminescence, dose response (AID 1891).
For the next assay, the system named is Streptococcus. The experiment in a line: GAS UMAA2166 growth inhibition – luminescence, BacTiterGlo, counter-screen for streptokinase expression inhibitor project, dose response (AID 1915).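 Also: potency for reduction of bacterial viability or growth.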 The class given is functional, organism-based.
Assay [16] has as its system Streptococcus sp. 'group A'. Briefly: Streptococcus pyogenes SK(-)GAS viability under kanamycin – luminescence, BacTiterGlo, confirmation, counter-screen for streptokinase expression inhibitor project, dose response (AID 1900). It counts as functional, organism-based. In general terms: A counterscreen serves to expose hits that act by an unwanted route or on another target.

A short description of assay [17]: Luminescence Cell-Based Dose Retest to Confirm Inhibitors of Cancer Stem Cells. [Related pubchem assays (depositor defined):AID2717, AID2721]. The class given is functional. The note with it: Homo sapiens.

Sequence of Peroxisome proliferator-activated receptor gamma/Nuclear receptor coactivator 2 (P37231 whole entry): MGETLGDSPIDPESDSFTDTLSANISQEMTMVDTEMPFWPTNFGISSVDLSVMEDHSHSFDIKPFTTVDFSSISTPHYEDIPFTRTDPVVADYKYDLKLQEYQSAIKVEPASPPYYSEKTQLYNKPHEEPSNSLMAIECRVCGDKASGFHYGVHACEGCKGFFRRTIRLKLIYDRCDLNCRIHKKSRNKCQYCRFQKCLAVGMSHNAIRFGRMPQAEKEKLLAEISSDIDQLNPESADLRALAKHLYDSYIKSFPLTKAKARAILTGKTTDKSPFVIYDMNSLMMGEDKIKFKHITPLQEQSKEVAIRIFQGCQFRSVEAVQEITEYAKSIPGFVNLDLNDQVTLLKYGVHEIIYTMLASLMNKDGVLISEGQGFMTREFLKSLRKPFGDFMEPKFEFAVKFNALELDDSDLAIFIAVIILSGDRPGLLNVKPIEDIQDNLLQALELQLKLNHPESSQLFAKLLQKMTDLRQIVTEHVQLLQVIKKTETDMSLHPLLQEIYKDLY
Sequence of Peroxisome proliferator-activated receptor gamma/Nuclear receptor coactivator 2 (Q15596 whole entry, further chain): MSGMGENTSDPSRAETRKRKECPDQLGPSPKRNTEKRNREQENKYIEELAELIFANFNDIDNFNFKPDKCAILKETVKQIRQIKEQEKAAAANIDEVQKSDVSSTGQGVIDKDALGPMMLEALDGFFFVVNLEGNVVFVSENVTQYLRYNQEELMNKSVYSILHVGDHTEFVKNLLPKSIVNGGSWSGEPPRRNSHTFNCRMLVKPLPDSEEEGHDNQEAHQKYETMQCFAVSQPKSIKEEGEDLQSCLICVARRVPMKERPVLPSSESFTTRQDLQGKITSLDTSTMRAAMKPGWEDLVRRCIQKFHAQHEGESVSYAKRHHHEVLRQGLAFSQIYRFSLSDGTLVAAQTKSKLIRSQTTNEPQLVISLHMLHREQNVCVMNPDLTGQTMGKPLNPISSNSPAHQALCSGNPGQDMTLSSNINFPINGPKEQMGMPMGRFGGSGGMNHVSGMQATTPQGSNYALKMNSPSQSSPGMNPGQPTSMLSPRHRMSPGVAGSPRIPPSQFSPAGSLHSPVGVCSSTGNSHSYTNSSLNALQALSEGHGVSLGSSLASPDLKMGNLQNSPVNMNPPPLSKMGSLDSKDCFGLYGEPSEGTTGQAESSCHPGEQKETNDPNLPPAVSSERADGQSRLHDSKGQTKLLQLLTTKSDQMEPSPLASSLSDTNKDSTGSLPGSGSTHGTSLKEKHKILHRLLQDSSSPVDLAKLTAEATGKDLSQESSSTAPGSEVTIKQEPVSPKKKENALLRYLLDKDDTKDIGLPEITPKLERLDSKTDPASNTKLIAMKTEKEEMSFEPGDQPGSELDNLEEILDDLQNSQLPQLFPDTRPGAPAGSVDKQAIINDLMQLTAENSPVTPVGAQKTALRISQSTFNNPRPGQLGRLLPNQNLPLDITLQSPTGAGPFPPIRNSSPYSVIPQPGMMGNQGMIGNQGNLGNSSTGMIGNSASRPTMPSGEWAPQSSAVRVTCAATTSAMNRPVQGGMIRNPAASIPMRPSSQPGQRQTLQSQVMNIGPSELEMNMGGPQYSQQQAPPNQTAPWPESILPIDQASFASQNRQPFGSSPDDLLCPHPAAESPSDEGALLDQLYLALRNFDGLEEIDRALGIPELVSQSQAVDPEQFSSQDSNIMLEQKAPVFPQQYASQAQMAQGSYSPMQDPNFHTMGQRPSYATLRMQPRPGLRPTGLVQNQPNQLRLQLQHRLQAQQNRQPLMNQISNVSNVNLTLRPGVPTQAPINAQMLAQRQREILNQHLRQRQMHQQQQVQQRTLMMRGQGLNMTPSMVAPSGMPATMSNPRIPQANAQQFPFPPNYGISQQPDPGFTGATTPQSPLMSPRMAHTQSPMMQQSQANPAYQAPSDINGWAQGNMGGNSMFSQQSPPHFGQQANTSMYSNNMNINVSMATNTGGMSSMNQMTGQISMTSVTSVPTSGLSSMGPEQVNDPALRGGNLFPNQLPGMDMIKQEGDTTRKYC
Sequence of Peroxisome proliferator-activated receptor gamma/Nuclear receptor coactivator 1 (P37231 whole entry): as the sequence (P37231 whole entry) above
Sequence of Peroxisome proliferator-activated receptor gamma/Nuclear receptor coactivator 1 (Q15788 whole entry, further chain): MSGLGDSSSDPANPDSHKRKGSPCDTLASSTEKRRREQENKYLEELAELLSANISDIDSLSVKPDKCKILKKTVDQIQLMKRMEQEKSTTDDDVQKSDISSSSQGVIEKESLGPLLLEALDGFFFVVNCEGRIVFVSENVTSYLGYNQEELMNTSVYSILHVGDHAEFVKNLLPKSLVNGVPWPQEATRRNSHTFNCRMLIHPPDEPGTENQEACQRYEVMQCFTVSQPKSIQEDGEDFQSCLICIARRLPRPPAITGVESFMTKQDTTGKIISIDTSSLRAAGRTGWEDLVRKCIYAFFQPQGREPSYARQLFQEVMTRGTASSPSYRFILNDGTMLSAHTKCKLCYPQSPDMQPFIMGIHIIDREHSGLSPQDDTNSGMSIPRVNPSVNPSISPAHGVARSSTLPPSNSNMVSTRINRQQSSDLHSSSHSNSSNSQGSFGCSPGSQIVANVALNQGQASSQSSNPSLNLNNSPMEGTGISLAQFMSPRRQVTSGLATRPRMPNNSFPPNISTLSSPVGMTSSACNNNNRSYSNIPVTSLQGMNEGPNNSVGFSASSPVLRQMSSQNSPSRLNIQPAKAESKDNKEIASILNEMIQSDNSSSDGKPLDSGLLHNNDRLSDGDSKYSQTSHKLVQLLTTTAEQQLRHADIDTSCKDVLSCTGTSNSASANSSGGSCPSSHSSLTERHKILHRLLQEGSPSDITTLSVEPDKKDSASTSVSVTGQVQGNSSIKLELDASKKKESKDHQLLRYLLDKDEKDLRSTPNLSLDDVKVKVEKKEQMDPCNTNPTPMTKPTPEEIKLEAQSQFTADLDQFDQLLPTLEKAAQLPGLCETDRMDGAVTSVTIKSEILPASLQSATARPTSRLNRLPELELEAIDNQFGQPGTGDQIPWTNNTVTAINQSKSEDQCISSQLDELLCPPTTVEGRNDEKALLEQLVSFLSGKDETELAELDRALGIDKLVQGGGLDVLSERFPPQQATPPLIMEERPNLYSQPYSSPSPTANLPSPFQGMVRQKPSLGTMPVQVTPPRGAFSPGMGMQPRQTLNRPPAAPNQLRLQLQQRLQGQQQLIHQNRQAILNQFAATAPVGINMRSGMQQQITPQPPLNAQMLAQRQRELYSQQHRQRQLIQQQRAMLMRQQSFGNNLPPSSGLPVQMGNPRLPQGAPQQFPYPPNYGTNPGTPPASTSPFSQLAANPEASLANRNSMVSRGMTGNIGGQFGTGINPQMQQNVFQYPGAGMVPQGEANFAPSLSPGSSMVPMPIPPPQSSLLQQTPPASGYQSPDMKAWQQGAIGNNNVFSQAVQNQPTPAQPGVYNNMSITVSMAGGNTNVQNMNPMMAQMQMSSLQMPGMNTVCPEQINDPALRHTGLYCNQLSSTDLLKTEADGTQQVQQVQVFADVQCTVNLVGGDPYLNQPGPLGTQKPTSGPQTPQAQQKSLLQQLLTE
Sequence of Paired box protein Pax-8 (Q06710 whole entry): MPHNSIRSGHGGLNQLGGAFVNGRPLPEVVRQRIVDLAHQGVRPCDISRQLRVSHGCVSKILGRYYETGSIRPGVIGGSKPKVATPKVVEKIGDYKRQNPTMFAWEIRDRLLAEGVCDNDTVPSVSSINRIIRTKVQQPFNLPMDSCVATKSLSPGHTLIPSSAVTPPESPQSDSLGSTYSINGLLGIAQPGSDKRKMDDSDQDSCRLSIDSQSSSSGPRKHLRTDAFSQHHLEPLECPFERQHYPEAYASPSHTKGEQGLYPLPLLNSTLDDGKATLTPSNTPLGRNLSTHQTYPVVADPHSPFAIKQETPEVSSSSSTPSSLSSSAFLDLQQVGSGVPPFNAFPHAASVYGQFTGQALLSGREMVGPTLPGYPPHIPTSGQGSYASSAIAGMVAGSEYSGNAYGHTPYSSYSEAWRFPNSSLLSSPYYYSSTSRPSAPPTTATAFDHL
Sequence of Luciferin 4-monooxygenase (P08659 whole entry): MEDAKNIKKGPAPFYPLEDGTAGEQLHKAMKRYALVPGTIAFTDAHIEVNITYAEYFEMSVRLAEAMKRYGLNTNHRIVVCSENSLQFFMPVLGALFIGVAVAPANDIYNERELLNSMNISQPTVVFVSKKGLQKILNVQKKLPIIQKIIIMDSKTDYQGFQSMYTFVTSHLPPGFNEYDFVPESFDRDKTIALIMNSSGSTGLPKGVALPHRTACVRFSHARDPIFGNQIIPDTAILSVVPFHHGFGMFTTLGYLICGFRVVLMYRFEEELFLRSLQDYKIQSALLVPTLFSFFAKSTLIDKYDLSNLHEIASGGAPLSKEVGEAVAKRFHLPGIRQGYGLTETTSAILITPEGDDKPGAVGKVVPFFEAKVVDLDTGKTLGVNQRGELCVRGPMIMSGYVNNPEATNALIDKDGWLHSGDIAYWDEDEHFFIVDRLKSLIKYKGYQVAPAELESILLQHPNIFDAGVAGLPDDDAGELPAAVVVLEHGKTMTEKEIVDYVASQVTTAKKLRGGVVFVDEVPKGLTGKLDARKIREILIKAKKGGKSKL

In the case of `Fc1ccccc1CSc1ncnc2c1oc1ccccc12`, the EC50 is 44.1 µM (inactive) in assay [1], 20 µM (not active) in [2] and > 79.4 µM (not active) in assay [3].
The term AC50 denotes the concentration giving half of the maximal activity seen. `CC(=O)C1=C(C)N(Cc2ccc(Br)cc2)C(=S)NC1c1cccc(Cl)c1` (stereo not given): the AC50 in assay [4] was 28.4 µM (active); in [5], 4.14 µM (active); in assay [6] it was 6.83 µM (active); in assay [7] it was 10 µM (active).
With `COc1ccccc1C1CC(c2ccccc2)=NN1C(S)=Nc1ccccc1` (stereo not given), the figures for the EC50 in assay [1], in assay [2] and in assay [3] were 9.45 µM (active), 10.6 µM (not active) and 80.4 µM (not active), respectively.
For the compound `Fc1ccc(Nc2cncc(-c3ccsc3)c2)cc1Cl`, in [8], the IC50 was 13.6 µM (inactive).
As for `Cc1ccc(SCc2noc(-c3c(C)noc3C)n2)cc1`, the EC50 in assay [9] was > 53 µM (inactive). Moreover, the IC50 was < 0.368 µM (active) in assay [10] and > 20 µM (inactive) in assay [11].
With `COc1ccccc1OCC(=O)Nc1nnc(-c2ccco2)s1`, the EC50 was 42.4 µM (inactive) in [1], 32.1 µM (not active) in [2] and > 79.4 µM (not active) in [3].
For `C[C@H](CO)N1C[C@H](C)[C@H](CN(C)S(=O)(=O)c2ccccc2)Oc2ccc(NC(=O)Nc3ccccc3)cc2CC1=O`, the figures for the AC50 in [4], in [5] and in [6] were 3 µM (active), < 0.26 µM (active) and 0.414 µM (active), respectively.
For `COc1ccc(N(CC(=O)NCCSCc2ccc(Cl)cc2)S(C)(=O)=O)cc1Cl`, the AC50 is 6.47 µM (active) in assay [4], 2.9 µM (active) in assay [5], 4.11 µM (active) in [6] and 5.7 µM (active) in [7].
On to `Cc1ccc(S(=O)(=O)Nc2ccc3cc([N+](=O)[O-])ccc3c2[N+](=O)[O-])cc1`, for which the AC50 in assay [12] is 14.9 µM (active). Also, the EC50 in assay [9] was > 53 µM (inactive). Moreover, the figures for the IC50 in assay [10] and in [11] were 6.45 µM (active) and 15 µM (active), respectively.
As to `CCOc1ccc(C(=O)O/N=C(\N)c2ccccn2)cc1`, the figures for the AC50 (on Paired box protein Pax-8; in assay [13]) were 7.43 µM (active) and 34.9 µM (active), respectively. Also, the EC50 in assay [14] is 0.499 µM (active); in assay [15] it was 0.847 µM (active).
For the compound `Cc1cc(O)nc(SCC(=O)Nc2ccc(Br)cc2)c1C#N`, the EC50 is 20.1 µM (active) with Streptococcus and 6.89 µM (active) in [16]. The IC50 in assay [11] was 15.4 µM (active).
For the compound `CCCCCCOc1ccc(OC(=O)c2ccncc2)cc1`, the AC50 was 3.67 µM (active) in assay [17], 4.71 µM (active) in assay [5], 44.6 µM (active) in assay [6] and 5.4 µM (active) in assay [7].
For the compound `CCn1nc(C)c(NC(=O)Nc2cccc(Cl)c2Cl)c1C`, the EC50 in assay [9] was > 53 µM (inactive). In addition, the IC50 in assay [10] is 36.7 µM (active); in assay [11] it was 11 µM (active).
As to `Cc1ccccc1S(=O)(=O)Nc1nc2ccccc2nc1N1CCOCC1`, the EC50 in [1] was 10.1 µM (inactive); in assay [2] it was 11.8 µM (not active); in [3] it was > 79.4 µM (not active).
